According to patent publication US8722014B2, “1 H-[1, 2, 3] triazole substituted amino acids and uses thereof” (Washington University, priority 2009, dated 2014):
Several values for one entry are separate records, joined by “and”; a condition that tells them apart may be missing. Equal values may be shown once. Read-outs that look alike come from different tables or passages of the source.

How the values were obtained:
9L gliosarcoma cells = experiment: Cell uptake assay in 9L gliosarcoma cells with amino acid transport inhibitors (cluster tray method); type: cell-based; settings: for percent uptake relative to control, Na ASC: L-Ala/L-Ser/L-Cys 3.3 mM each
Protocol: The 9L gliosarcoma tumor is an established model for human glioblastoma (brain tumor). Cell uptake assays were performed with 9L gliosarcoma cells using both (R)-[^18F]4 and (S)-[^18F]4. 9L gliosarcoma cells were cultured with Earle's minimal essential medium (MEM) augmented with 10% newborn calf serum, 1% 200 mM L-glutamine, 1% MEM vitamin solution and 1% 10 mM non-essential amino acids (NEAA). The cells were passaged every two to three days prior to use with no more than a total of 20 passages. Two to three days before the uptake assays, suspension of 2.5 or 5.0×10^4 cells in culture media were aliquoted into Costar 24 well plates to achieve log growth phase with approximately 70% confluency at the time of the uptake assay (approximately 10^5 cells per well).
Cell uptake assays were performed using the cluster tray method reported in Gazzola et al., Anal. Biochem. 115: 368-374, 1981. Two buffers were used for the assays, a phosphate buffered saline solution and a sodium-free phosphate buffered choline chloride solution. […] The choline buffer was the same as the sodium buffer except choline chloride was substituted for sodium chloride and choline phosphate dibasic was substituted for sodium phosphate dibasic. A 250 mM solution of choline phosphate dibasic was prepared by boiling 95.6 mL of 75% of choline bicarbonate (0.500 mol) and 16.9 mL of 85% aqueous phosphoric acid (0.247 mol) in 750 mL of water for 60 min. The solution was brought to a total volume of 1 liter with water and brought to pH 7.4 with concentrated aqueous hydrochloric acid. The pH of the sodium and choline buffer solutions was adjusted to 7.4 with concentrated aqueous hydrochloric acid prior to use.
A variety of inhibitor conditions were used to determine which amino acid transport system or systems were responsible for cellular uptake of (R)- and (S)-[^18F]-4. The N-methylated amino acid, methylaminoisobutyric acid (MeAIB), is a selective system A substrate and has been used extensively as a competitive inhibitor of system A transport (Shotwell, M. A., et al. Biochem. Biophys. Acta. 737: 267-284, 1983; Christensen, H. N., et al., J. Biol. Chem. 240: 3609-3616, 1965) The bulky neutral amino acid, 2-aminobicyclo-(2,2,1)-heptane-2-carboxylic acid (BCH), has been extensively used as a competitive inhibitor of system L transport, and under sodium-free conditions BCH is a selective system L inhibitor (Palacin, M., et al., Physiol. Rev. 78: 969-1054, 1998. In the presence of sodium, BCH is also an inhibitor of system B^0,+ which is a sodium-dependent amino acid transporter that typically is a minor transport systems in most tissues. A mixture of L-alanine (L-Ala), L-serine (L-Ser) and L-cysteine (L-Cys), (ASC), was used as a non-specific inhibitor condition, and this combination of amino acids is expected to inhibit a broad range of amino acid transport systems including system ASC. Because of the results of initial cell uptake assays described below and the structural relationship of the 1H-1,2,3-triazole group to the imidazole side chain of L-histidine (L-His), additional uptake assays using L-His as well as the basic side chain amino acids L-arginine (L-Arg) and L-lysine (L-Lys) individually and together (RKH) as competitive inhibitors were performed.
The following inhibitors were added to the appropriate sodium or choline buffer: N-methyl aminoisobutyric acid (MeAIB, 10 mM), a mixture of L-alanine/L-serine/L-cysteine (ASC, 3.3 mM of each amino acid), (R,S)-(endo,exo)-2-aminobicyclo(2,2,1)-heptane-2-carboxylic acid (BCH, 10 mM), L-arginine (Arg, 10 mM), L-lysine (Lys, 10 mM), L-histidine (His, 10 mM) and a mixture of Arg/Lys/H is (RKH, 3.3 mM of each amino acid). For control conditions, 10 mM of sucrose was added to maintain consistent osmolality relative to the inhibitor conditions. The pH of each solution of inhibitor in buffer was adjusted as necessary to 7.40 with 3 M aqueous hydrochloric acid prior to use in cell uptake assays. […]

[1] = system: subcutaneous 9L gliosarcoma tumors
Protocol: Biodistribution studies were performed with both enantiomers, (R)-[^18F]4 and (S)-[^18F]4, using Fischer 344 rats (Charles River Laboratories, Wilmington Mass., USA) implanted with subcutaneous 9L gliosarcoma tumors. The tumors were implanted by subcutaneous injection of a suspension of approximately 1×10^69L gliosarcoma cells into the flanks of the rats. The tumors were allowed to grow for 3 weeks prior to the study. The rats were allowed food and water ad libitum prior to the biodistribution study. Anesthesia was achieved using a mixture of 1% isoflurane in oxygen, and the radiolabeled amino acid (R)-[^18F]4 or (S)-[^18F]4 was injected intravenously through a tail vein. The animals were euthanized in groups of four for each enantiomer at 5, 30 or 60 minutes after injection. The organs and tissues of interest and the tumors were dissected and weighed, and the amounts of activity were measured and decay corrected to the time of injection with a gamma counter. Standards for the doses were also measured with a gamma counter, and the data were normalized as the percent of total dose per gram of tissue (% ID/g) for each sample. The data were analyzed using GraphPad Prism software with 1-way ANOVAs for each enantiomer at each time point with Bonferroni post-tests. The tumor and brain uptake of radioactivity was directly compared for both enantiomers at each time point with a 2-way ANOVA with Bonferroni post-test. p-values less than or equal to 0.05 were considered statistically significant.

Cl.N[C@H](Cc1cn(CC[18F])nn1)C(=O)O [(R)-[^18F]4, (R)-2-amino-3-[1-(2-fluoroethyl)-1H-[1,2,3]triazol-4-yl]propanoic acid hydrochloride salt-[^18F]]
inhibition of uptake by ASC condition relative to the sodium control (9L gliosarcoma cells; neutral amino acid inhibitor assay, p<0.001): 36%
uptake mediated by system L or cationic amino acid transport systems (9L gliosarcoma cells; same uptake assays with inhibitors): did not demonstrate significant uptake
inhibition of uptake by ASC condition relative to the sodium control (9L gliosarcoma cells; second independent assay, p<0.01): 33%
percent uptake relative to control, Na RKH (9L gliosarcoma cells; sodium buffer, Arg/Lys/His 3.3 mM each (FIG. 4/6)): 82±4%
percent uptake relative to control, Na BCH (9L gliosarcoma cells; sodium buffer, BCH 10 mM, 30 sec uptake, neutral amino acid inhibitor assay (FIG. 3/5)): 110±11%
percent uptake relative to control, Na ASC (9L gliosarcoma cells; sodium buffer, 30 sec uptake, neutral amino acid inhibitor assay (FIG. 3/5)): 64±6%
percent uptake relative to control, Na ASC (9L gliosarcoma cells; sodium buffer, basic side chain amino acid inhibitor assay (FIG. 4/6)): 67±15%
percent uptake relative to control, Na Arg (9L gliosarcoma cells; sodium buffer, L-arginine 10 mM (FIG. 4/6)): 83±7%
percent uptake relative to control, Na His (9L gliosarcoma cells; sodium buffer, L-histidine 10 mM (FIG. 4/6)): 91±10%
percent uptake relative to control, Na Lys (9L gliosarcoma cells; sodium buffer, L-lysine 10 mM (FIG. 4/6)): 104±8%
percent uptake relative to control, Na MeAIB (9L gliosarcoma cells; sodium buffer, MeAIB 10 mM, 30 sec uptake, neutral amino acid inhibitor assay (FIG. 3/5)): 97±7%
percent uptake relative to control, Cho BCH (9L gliosarcoma cells; sodium-free choline buffer, BCH 10 mM, relative to sodium control (FIG. 3/5)): 95±4%
percent uptake relative to control, Cho sucrose (9L gliosarcoma cells; sodium-free choline buffer, sucrose 10 mM, relative to sodium control (FIG. 3/5)): 107±14%
biodistribution: blood ([1]; 5 min after i.v. injection): 0.90 ± 0.166 % ID/g
biodistribution: bone ([1]; 5 min after i.v. injection): 0.32 ± 0.083 % ID/g
biodistribution: brain ([1]; 5 min after i.v. injection): 0.09 ± 0.015 % ID/g
biodistribution: fat ([1]; 5 min after i.v. injection): 0.10 ± 0.044 % ID/g
biodistribution: heart ([1]; 5 min after i.v. injection): 0.42 ± 0.076 % ID/g
biodistribution: kidney ([1]; 5 min after i.v. injection): 14.01 ± 3.826 % ID/g
biodistribution: large intestine ([1]; 5 min after i.v. injection): 0.15 ± 0.043 % ID/g
biodistribution: liver ([1]; 5 min after i.v. injection): 0.54 ± 0.153 % ID/g
biodistribution: lung ([1]; 5 min after i.v. injection): 0.74 ± 0.143 % ID/g
biodistribution: muscle ([1]; 5 min after i.v. injection): 0.18 ± 0.049 % ID/g
biodistribution: pancreas ([1]; 5 min after i.v. injection): 0.53 ± 0.126 % ID/g
biodistribution: salivary gland ([1]; 5 min after i.v. injection): 0.46 ± 0.083 % ID/g
biodistribution: small intestine ([1]; 5 min after i.v. injection): 0.32 ± 0.079 % ID/g
biodistribution: spleen ([1]; 5 min after i.v. injection): 0.33 ± 0.065 % ID/g
biodistribution: testes ([1]; 5 min after i.v. injection): 0.18 ± 0.042 % ID/g
biodistribution: thyroid ([1]; 5 min after i.v. injection): 0.64 ± 0.092% of total dose per organ
biodistribution: tumor ([1]; 5 min after i.v. injection): 0.27 ± 0.042 % ID/g
tumor:brain ratio ([1]; 5 min after i.v. injection): 3.2
biodistribution: blood ([1]; 30 min after i.v. injection): 0.28 ± 0.037 % ID/g
biodistribution: bone ([1]; 30 min after i.v. injection): 0.13 ± 0.027 % ID/g
biodistribution: brain ([1]; 30 min after i.v. injection): 0.04 ± 0.005 % ID/g
biodistribution: fat ([1]; 30 min after i.v. injection): 0.03 ± 0.012 % ID/g
biodistribution: heart ([1]; 30 min after i.v. injection): 0.13 ± 0.014 % ID/g
biodistribution: kidney ([1]; 30 min after i.v. injection): 6.76 ± 0.830 % ID/g
biodistribution: large intestine ([1]; 30 min after i.v. injection): 0.08 ± 0.060 % ID/g
biodistribution: liver ([1]; 30 min after i.v. injection): 0.58 ± 0.074 % ID/g
biodistribution: lung ([1]; 30 min after i.v. injection): 0.54 ± 0.211 % ID/g
biodistribution: muscle ([1]; 30 min after i.v. injection): 0.08 ± 0.020 % ID/g
biodistribution: pancreas ([1]; 30 min after i.v. injection): 0.50 ± 0.105 % ID/g
biodistribution: salivary gland ([1]; 30 min after i.v. injection): 0.20 ± 0.016 % ID/g
biodistribution: small intestine ([1]; 30 min after i.v. injection): 0.30 ± 0.154 % ID/g
biodistribution: spleen ([1]; 30 min after i.v. injection): 0.18 ± 0.004 % ID/g
biodistribution: testes ([1]; 30 min after i.v. injection): 0.08 ± 0.011 % ID/g
biodistribution: thyroid ([1]; 30 min after i.v. injection): 0.21 ± 0.023% of total dose per organ
biodistribution: tumor ([1]; 30 min after i.v. injection): 0.29 % ID/g and 0.29 ± 0.132 % ID/g
tumor:brain ratio ([1]; 30 min after i.v. injection): 8.8
biodistribution: blood ([1]; 60 min after i.v. injection): 0.14 ± 0.015 % ID/g
biodistribution: bone ([1]; 60 min after i.v. injection): 0.08 ± 0.007 % ID/g
biodistribution: brain ([1]; 60 min after i.v. injection): 0.02 ± 0.001 % ID/g
biodistribution: fat ([1]; 60 min after i.v. injection): 0.02 ± 0.002 % ID/g
biodistribution: heart ([1]; 60 min after i.v. injection): 0.08 ± 0.006 % ID/g
biodistribution: kidney ([1]; 60 min after i.v. injection): 2.39 ± 0.138 % ID/g
biodistribution: large intestine ([1]; 60 min after i.v. injection): 0.05 ± 0.002 % ID/g
biodistribution: liver ([1]; 60 min after i.v. injection): 0.48 ± 0.023 % ID/g
biodistribution: lung ([1]; 60 min after i.v. injection): 0.37 ± 0.100 % ID/g
biodistribution: muscle ([1]; 60 min after i.v. injection): 0.05 ± 0.006 % ID/g
biodistribution: pancreas ([1]; 60 min after i.v. injection): 0.43 ± 0.063 % ID/g
biodistribution: salivary gland ([1]; 60 min after i.v. injection): 0.15 ± 0.009 % ID/g
biodistribution: small intestine ([1]; 60 min after i.v. injection): 0.35 ± 0.015 % ID/g
biodistribution: spleen ([1]; 60 min after i.v. injection): 0.14 ± 0.002 % ID/g
biodistribution: testes ([1]; 60 min after i.v. injection): 0.05 ± 0.002 % ID/g
biodistribution: thyroid ([1]; 60 min after i.v. injection): 0.12 ± 0.010% of total dose per organ
biodistribution: tumor ([1]; 60 min after i.v. injection): 0.17 ± 0.009 % ID/g
tumor:brain ratio ([1]; 60 min after i.v. injection): 6.9
